Type in all cases: cell-based
One test concerns the target T1, Human Nav1.8 (Homo sapiens, UniProt Q9Y5Y9).
T1 construct: expressed in transfected cells; host or cells: HEK293
The test is described as follows: VIPR Assay for Nav1.8 Compounds (FRET membrane potential, deltamethrin opener).

The subject of test [1] is tetrodotoxin-sensitive voltage-gated sodium channels including NaV1.2, NaV1.3 and NaV1.7. The test is described as follows: TTX-S Assay (VIPR, SHSY-5Y cell line, veratridine opener). The note with it: read-out: TTX-S IC50, veratridine 50 μM opener, average of replicates.
The target of another test is T2, Human Nav1.5 (Homo sapiens, UniProt Q14524).
T2 construct: expressed in transfected cells; host or cells: HEK293
The test is described as follows: Nav1.5 Assay (VIPR, HEK293 cells). As to the method: The Nav1.5 assay is performed in HEK293 cells expressing Human Nav1.5 in the same way as the Nav1.8 assay.
Where replicate experiments were conducted resulting in multiple sets of data for a test compound, the data presented represent the average value from all replicate experiments.

[2] abbreviates: VIPR FRET membrane potential assay, deltamethrin opener, average of replicates, read-out: Nav1.8 IC50.
The mark [3] stands for this setting: HEK293 cells expressing Human Nav1.5, average of replicates, read-out: Nav1.5 IC50.

The IC50 is the concentration at which inhibition is half-maximal.

The structures appear in SMILES notation. Read-outs that look alike come from different tables or passages of the source. A value given as a limit tells only on which side of the number the result lay.

T1 sequence (Q9Y5Y9 whole entry): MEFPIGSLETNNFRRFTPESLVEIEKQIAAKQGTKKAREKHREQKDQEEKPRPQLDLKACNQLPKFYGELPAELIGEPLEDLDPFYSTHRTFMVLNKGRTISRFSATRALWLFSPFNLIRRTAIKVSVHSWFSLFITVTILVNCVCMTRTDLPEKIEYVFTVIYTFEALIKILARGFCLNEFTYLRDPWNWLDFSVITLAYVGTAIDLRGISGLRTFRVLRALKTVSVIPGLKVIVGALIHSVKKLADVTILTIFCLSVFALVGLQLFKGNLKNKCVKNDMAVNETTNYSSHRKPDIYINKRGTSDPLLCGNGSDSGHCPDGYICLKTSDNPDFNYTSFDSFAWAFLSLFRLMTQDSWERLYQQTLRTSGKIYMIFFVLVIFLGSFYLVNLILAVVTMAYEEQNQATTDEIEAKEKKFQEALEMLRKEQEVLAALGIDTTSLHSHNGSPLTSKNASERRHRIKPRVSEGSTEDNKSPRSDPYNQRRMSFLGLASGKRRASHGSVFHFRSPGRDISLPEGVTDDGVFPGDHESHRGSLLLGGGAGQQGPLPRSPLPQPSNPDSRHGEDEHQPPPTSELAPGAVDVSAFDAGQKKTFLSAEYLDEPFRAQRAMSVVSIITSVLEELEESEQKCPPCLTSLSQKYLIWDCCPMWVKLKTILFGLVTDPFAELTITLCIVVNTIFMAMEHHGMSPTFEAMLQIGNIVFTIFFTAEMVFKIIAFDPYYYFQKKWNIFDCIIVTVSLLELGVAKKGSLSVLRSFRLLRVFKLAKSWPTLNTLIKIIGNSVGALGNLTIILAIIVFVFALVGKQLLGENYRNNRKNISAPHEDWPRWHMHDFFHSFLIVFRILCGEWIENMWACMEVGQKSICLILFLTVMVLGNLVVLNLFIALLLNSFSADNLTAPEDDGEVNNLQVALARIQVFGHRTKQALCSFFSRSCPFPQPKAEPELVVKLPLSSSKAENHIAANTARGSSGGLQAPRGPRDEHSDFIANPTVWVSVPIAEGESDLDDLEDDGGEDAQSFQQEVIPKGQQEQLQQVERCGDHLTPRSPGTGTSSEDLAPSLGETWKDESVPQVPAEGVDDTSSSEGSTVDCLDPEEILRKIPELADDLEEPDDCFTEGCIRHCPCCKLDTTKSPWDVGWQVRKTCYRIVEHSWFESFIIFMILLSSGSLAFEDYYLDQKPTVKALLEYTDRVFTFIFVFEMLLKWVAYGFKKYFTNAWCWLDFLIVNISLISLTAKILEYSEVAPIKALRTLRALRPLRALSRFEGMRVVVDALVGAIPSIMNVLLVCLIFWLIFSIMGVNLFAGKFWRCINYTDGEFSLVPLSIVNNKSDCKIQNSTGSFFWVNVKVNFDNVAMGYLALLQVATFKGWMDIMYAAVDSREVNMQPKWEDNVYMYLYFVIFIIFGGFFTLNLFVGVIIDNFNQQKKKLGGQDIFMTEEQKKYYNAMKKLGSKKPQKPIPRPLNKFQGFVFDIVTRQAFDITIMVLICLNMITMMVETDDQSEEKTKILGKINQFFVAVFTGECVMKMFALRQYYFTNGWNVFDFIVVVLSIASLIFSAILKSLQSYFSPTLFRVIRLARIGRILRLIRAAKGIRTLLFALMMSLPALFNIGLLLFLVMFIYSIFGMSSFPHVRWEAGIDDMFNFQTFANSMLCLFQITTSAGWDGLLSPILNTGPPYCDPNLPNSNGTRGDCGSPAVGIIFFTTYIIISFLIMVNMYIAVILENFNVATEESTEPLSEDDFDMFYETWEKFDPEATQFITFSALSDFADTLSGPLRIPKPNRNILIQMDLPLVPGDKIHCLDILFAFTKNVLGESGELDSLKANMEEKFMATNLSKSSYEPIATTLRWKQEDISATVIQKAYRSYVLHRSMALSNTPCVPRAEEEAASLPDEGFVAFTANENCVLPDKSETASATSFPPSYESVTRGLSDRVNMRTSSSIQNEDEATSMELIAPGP
T2 sequence (Q14524 whole entry): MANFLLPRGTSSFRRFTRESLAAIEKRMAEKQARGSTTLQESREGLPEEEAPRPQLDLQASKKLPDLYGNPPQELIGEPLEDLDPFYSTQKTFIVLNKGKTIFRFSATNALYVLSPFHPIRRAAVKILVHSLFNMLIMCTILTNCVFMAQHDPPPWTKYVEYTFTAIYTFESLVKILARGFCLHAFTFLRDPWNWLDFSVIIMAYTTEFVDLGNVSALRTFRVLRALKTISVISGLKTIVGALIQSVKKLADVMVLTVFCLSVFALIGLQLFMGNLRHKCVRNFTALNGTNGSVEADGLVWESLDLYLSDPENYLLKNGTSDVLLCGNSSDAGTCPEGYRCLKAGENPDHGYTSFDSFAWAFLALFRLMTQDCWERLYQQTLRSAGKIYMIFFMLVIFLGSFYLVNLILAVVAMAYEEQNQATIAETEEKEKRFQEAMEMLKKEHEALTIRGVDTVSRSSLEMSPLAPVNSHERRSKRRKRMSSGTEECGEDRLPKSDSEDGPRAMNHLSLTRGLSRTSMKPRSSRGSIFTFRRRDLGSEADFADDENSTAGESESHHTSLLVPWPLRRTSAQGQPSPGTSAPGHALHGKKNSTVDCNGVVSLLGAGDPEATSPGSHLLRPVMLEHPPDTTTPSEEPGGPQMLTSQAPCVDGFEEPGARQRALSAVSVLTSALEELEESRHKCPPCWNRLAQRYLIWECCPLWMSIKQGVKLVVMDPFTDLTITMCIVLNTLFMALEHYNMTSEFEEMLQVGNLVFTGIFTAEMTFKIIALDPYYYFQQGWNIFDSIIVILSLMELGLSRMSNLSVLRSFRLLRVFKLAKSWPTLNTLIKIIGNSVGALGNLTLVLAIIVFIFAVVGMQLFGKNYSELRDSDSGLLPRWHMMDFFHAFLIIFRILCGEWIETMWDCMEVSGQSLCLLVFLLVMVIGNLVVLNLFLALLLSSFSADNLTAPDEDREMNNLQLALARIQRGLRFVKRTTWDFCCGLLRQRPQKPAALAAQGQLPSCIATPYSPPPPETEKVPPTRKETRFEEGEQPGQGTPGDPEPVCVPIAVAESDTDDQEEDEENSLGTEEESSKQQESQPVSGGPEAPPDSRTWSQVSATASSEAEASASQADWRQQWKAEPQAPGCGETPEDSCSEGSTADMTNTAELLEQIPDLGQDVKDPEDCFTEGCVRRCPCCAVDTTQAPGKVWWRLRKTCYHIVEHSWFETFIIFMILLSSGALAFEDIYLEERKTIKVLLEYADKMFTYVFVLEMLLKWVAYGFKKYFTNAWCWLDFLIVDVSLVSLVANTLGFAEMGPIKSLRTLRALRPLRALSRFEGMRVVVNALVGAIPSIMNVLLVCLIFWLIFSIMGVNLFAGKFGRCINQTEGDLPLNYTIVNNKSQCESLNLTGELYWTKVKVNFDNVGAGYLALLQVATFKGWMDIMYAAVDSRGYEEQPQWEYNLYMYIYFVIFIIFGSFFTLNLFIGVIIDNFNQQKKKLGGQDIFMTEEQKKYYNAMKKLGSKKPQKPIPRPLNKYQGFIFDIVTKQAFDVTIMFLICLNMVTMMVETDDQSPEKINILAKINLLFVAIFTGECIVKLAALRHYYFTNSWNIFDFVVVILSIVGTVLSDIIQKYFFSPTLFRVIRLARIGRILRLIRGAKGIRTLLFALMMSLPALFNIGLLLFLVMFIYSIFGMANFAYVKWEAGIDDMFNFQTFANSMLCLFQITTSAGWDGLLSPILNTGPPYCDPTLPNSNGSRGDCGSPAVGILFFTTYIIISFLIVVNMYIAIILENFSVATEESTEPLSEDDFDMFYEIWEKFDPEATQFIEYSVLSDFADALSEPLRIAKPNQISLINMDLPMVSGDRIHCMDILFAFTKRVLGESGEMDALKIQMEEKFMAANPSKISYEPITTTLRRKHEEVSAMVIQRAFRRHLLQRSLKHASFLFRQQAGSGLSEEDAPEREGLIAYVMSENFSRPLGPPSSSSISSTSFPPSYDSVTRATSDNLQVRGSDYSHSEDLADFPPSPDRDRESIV

On to `Cc1nocc1C(=O)Nc1ccc(-c2cc(O)ccc2Cl)c(N)n1` [Example 175, N-[6-amino-5-(2-chloro-5-hydroxyphenyl)pyridin-2-yl]-3-methylisoxazole-4-carboxamide], for which the results for the concentration for half-maximal inhibition (IC50) (at Human Nav1.8 (setting [2]); in test [1]; at Human Nav1.5 (setting [3])) were 23 µM, 20 µM and more than 32 µM, respectively.
The matching figures for `Cn1nccc1C(=O)Nc1ccc(-c2cc(F)ccc2Cl)c(N)n1` [Example 6, N-[6-Amino-5-(2-chloro-5-fluorophenyl)pyridin-2-yl]-1-methyl-1H-pyrazole-5-carboxamide]: 1.1 µM, 23 µM and 13 µM.
For `COc1ccc(Cl)c(-c2ccc(NC(=O)c3nonc3C)nc2N)c1` [Example 45, N-[6-Amino-5-(2-chloro-5-methoxyphenyl)pyridin-2-yl]-4-methyl-1,2,5-oxadiazole-3-carboxamide], the 50% inhibitory concentration (IC50) on Human Nav1.8 (setting [2]) came to 2.6 µM; in test [1], 13 µM.
`COc1cc(Cl)cc(-c2ccc(NC(=O)c3conc3C)nc2N)c1Cl` [Example 27, N-[6-Amino-5-(2,5-dichloro-3-methoxyphenyl)pyridin-2-yl]-3-methylisoxazole-4-carboxamide]: the IC50 is 0.37 µM on Human Nav1.8 (setting [2]), 3.2 µM in test [1] and 10 µM on Human Nav1.5 (setting [3]).
For the molecule `CCn1nccc1C(=O)Nc1ccc(-c2ccc(F)cc2Cl)c(N)n1` [Example 55, N-[6-Amino-5-(2-chloro-4-fluorophenyl)pyridin-2-yl]-1-ethyl-1H-pyrazole-5-carboxamide], the figures for the half-inhibitory concentration (IC50) (on Human Nav1.8 (setting [2]); in test [1]; at Human Nav1.5 (setting [3])) were 23 µM, more than 32 µM and more than 32 µM, respectively.
Turning to `Cc1nocc1C(=O)Nc1ccc(-c2cccc(C(F)(F)F)c2Cl)c(N)n1` [Example 124], the IC50 amounted to 11 µM at Human Nav1.8 (setting [2]), 8.6 µM in test [1] and 12 µM on Human Nav1.5 (setting [3]).
For `COc1cc(Cl)c(Cl)c(-c2ccc(NC(=O)c3conc3C)nc2N)c1` [Example 29, N-[6-Amino-5-(2,3-dichloro-5-methoxyphenyl)pyridin-2-yl]-3-methylisoxazole-4-carboxamide], the results for the IC50 (on Human Nav1.8 (setting [2]); in test [1]; at Human Nav1.5 (setting [3])) were 0.55 µM, 8.2 µM and 6.4 µM, respectively.
Take `Cc1nonc1C(=O)Nc1ccc(-c2ccccc2Cl)c(N)n1` [Example 46, N-[6-Amino-5-(2-chlorophenyl)pyridin-2-yl]-4-methyl-1,2,5-oxadiazole-3-carboxamide]: the half-maximal inhibitory concentration (IC50) at Human Nav1.8 (setting [2]) is 1.2 µM; in test [1], 30 µM.
For the molecule `CCn1nccc1C(=O)Nc1ccc(-c2cc(F)ccc2C(F)(F)F)c(N)n1` [Example 57, N-{6-Amino-5-[5-fluoro-2-(trifluoromethyl)phenyl]pyridin-2-yl}-1-ethyl-1H-pyrazole-5-carboxamide], the values for the 50% inhibitory concentration (IC50) (on Human Nav1.8 (setting [2]); in test [1]; on Human Nav1.5 (setting [3])) were 3.7 µM, 21 µM and more than 32 µM, respectively.
On to `COCc1oncc1C(=O)Nc1ccc(-c2ccccc2OC(F)(F)F)c(N)n1` [Example 93], for which the IC50 is 1.5 µM on Human Nav1.8 (setting [2]), 7.1 µM in test [1] and more than 32 µM at Human Nav1.5 (setting [3]).
As to `CCn1nccc1C(=O)Nc1ccc(-c2cc(OC)ccc2Cl)c(N)n1` [Example 52, N-[6-Amino-5-(2-chloro-5-methoxyphenyl)pyridin-2-yl]-1-ethyl-1H-pyrazole-5-carboxamide], the results for the concentration for half-maximal inhibition (IC50) (at Human Nav1.8 (setting [2]); in test [1]; on Human Nav1.5 (setting [3])) were 0.95 µM, 6.4 µM and 16 µM, respectively.
As to `CCn1nccc1C(=O)Nc1ccc(-c2cc(Cl)ccc2OC(F)(F)F)c(N)n1` [Example 63, N-{6-Amino-5-[5-chloro-2-(trifluoromethoxy)phenyl]pyridin-2-yl}-1-ethyl-1H-pyrazole-5-carboxamide], the concentration for half-maximal inhibition (IC50) on Human Nav1.8 (setting [2]) is 4.3 µM; in test [1], 4.4 µM; at Human Nav1.5 (setting [3]), 16 µM.
`COCc1nocc1C(=O)Nc1ccc(-c2ccccc2OC(F)(F)F)c(N)n1` [Example 88, N-{6-Amino-5-[2-(trifluoromethoxy)phenyl]pyridin-2-yl}-3-(methoxymethyl)isoxazole-4-carboxamide]: the figures for the IC50 (at Human Nav1.8 (setting [2]); in test [1]; at Human Nav1.5 (setting [3])) were 1.5 µM, 7.3 µM and 9.8 µM, respectively.
Turning to `Nc1nc(NC(=O)c2ccon2)ccc1-c1cc(Cl)ccc1Cl` [Example 72, N-[6-Amino-5-(2,5-dichlorophenyl)pyridin-2-yl]isoxazole-3-carboxamide], the concentration for half-maximal inhibition (IC50) was found to be 8.6 µM at Human Nav1.8 (setting [2]) and 15 µM in test [1].
`Cn1nncc1C(=O)Nc1ccc(-c2ccc(Cl)cc2Cl)c(N)n1` [Example 79, N-[6-Amino-5-(2,4-dichlorophenyl)pyridin-2-yl]-1-methyl-1H-1,2,3-triazole-5-carboxamide]: the half-inhibitory concentration (IC50) on Human Nav1.8 (setting [2]) is 5.8 µM; in test [1] it was 22 µM.
Regarding `Nc1nc(NC(=O)c2ccno2)ccc1-c1ccccc1Cl` [Example 77, N-[6-Amino-5-(2-chlorophenyl)pyridin-2-yl]isoxazole-5-carboxamide], the IC50 was 5 µM on Human Nav1.8 (setting [2]) and more than 32 µM in test [1].
As for `COc1ccc(C(=O)Nc2ccc(-c3cc(Cl)ccc3Cl)c(N)n2)c(OC)c1` [Example 105], the concentration for half-maximal inhibition (IC50) was 3.5 µM at Human Nav1.8 (setting [2]) and 7.7 µM in test [1].
The matching figures for `Cc1nocc1C(=O)Nc1ccc(-c2cc(Cl)ccc2Cl)c(N)n1` [Example 25, N-[6-Amino-5-(2,5-dichlorophenyl)pyridin-2-yl]-3-methylisoxazole-4-carboxamide]: 1.6 µM and 10 µM.
As to `Nc1nc(NC(=O)c2ccon2)ccc1-c1ccccc1Cl` [Example 74, N-[6-Amino-5-(2-chlorophenyl)pyridin-2-yl]isoxazole-3-carboxamide], the IC50 at Human Nav1.8 (setting [2]) turned out to be 4.2 µM; in test [1], 30 µM.
For `Nc1nc(NC(=O)c2ccccc2Cl)ccc1-c1cc(Cl)ccc1Cl` [Example 101], in that order: 3.7 µM and 6.2 µM.
Take `COc1cccc(C(=O)Nc2ccc(-c3cc(Cl)ccc3Cl)c(N)n2)c1` [Example 102]: the results for the IC50 (at Human Nav1.8 (setting [2]); in test [1]) were 2.3 µM and 5.4 µM, respectively.
Turning to `Cc1nonc1C(=O)Nc1ccc(-c2cc(Cl)ccc2Cl)c(N)n1` [Example 44, N-[6-Amino-5-(2,5-dichlorophenyl)pyridin-2-yl]-4-methyl-1,2,5-oxadiazole-3-carboxamide], the IC50 on Human Nav1.8 (setting [2]) came out at 3.2 µM; in test [1], 8.1 µM.
With `Nc1nc(NC(=O)c2ccno2)ccc1-c1cc(Cl)ccc1Cl` [Example 75, N-[6-Amino-5-(2,5-dichlorophenyl)pyridin-2-yl]isoxazole-5-carboxamide], the results for the IC50 (on Human Nav1.8 (setting [2]); in test [1]) were 1.4 µM and 24 µM, respectively.
For `Nc1nc(NC(=O)c2ccc(Cl)cc2)ccc1-c1cc(Cl)ccc1Cl` [Example 100], the IC50 on Human Nav1.8 (setting [2]) was determined as 6.3 µM; in test [1], 4.4 µM.
Take `CC(C)n1nccc1C(=O)Nc1ccc(-c2ccccc2Cl)c(N)n1` [Example 66, N-[6-Amino-5-(2-chlorophenyl)pyridin-2-yl]-1-isopropyl-1H-pyrazole-5-carboxamide]: the half-inhibitory concentration (IC50) is 2.4 µM at Human Nav1.8 (setting [2]) and 11 µM in test [1].
Regarding `Nc1nc(NC(=O)c2ccccc2)ccc1-c1cc(Cl)ccc1Cl` [Example 97], the IC50 at Human Nav1.8 (setting [2]) was determined as 1.9 µM; in test [1] it was 5.4 µM.
On to `COc1ccc(C(=O)Nc2ccc(-c3cc(Cl)ccc3Cl)c(N)n2)cc1OC` [Example 103], for which the figures for the 50% inhibitory concentration (IC50) (at Human Nav1.8 (setting [2]); in test [1]) were 4.1 µM and 8.4 µM, respectively.
As for `COc1ccc(Cl)c(-c2ccc(NC(=O)c3ccno3)nc2N)c1` [Example 76, N-[6-Amino-5-(2-chloro-5-methoxyphenyl)pyridin-2-yl]isoxazole-5-carboxamide], the results for the IC50 (at Human Nav1.8 (setting [2]); in test [1]) were 0.86 µM and 6.5 µM, respectively.
Regarding `COc1cc(OC)cc(C(=O)Nc2ccc(-c3cc(Cl)ccc3Cl)c(N)n2)c1` [Example 104], the IC50 at Human Nav1.8 (setting [2]) is 3.3 µM; in test [1], 8 µM.
In the case of `COc1cc(Cl)cc(-c2ccc(NC(=O)c3nonc3C)nc2N)c1Cl` [Example 51, N-[6-Amino-5-(2,5-dichloro-3-methoxyphenyl)pyridin-2-yl]-4-methyl-1,2,5-oxadiazole-3-carboxamide], the half-maximal inhibitory concentration (IC50) came out at 2.6 µM at Human Nav1.8 (setting [2]) and 4.5 µM in test [1].
For the molecule `COC(C)COc1ccc(F)cc1-c1ccc(NC(=O)c2ccnn2C)nc1N` (stereo not shown) [Example 158], the IC50 was 15 µM at Human Nav1.8 (setting [2]) and more than 32 µM at Human Nav1.5 (setting [3]).
For the molecule `Cc1nocc1C(=O)Nc1ccc(-c2cc(F)ccc2OC(C)C)c(N)n1` [Example 145], the 50% inhibitory concentration (IC50) on Human Nav1.8 (setting [2]) was found to be 1.5 µM; on Human Nav1.5 (setting [3]), 28 µM.
In the case of `Cc1oncc1C(=O)Nc1ccc(-c2cc(Cl)ccc2Cl)c(N)n1` [Example 21, N-[6-Amino-5-(2,5-dichlorophenyl)pyridin-2-yl]-5-methylisoxazole-4-carboxamide], the IC50 was determined as 23 µM on Human Nav1.8 (setting [2]) and 27 µM in test [1].
The matching figures for `Cc1nonc1C(=O)Nc1ccc(-c2ccc(Cl)cc2Cl)c(N)n1` [Example 49, N-[6-Amino-5-(2,4-dichlorophenyl)pyridin-2-yl]-4-methyl-1,2,5-oxadiazole-3-carboxamide]: 6.1 µM and 12 µM.
As for `Cc1nocc1C(=O)Nc1ccc(-c2cc(Cl)cc(Cl)c2Cl)c(N)n1` [Example 28, N-[6-Amino-5-(2,3,5-trichlorophenyl)pyridin-2-yl]-3-methylisoxazole-4-carboxamide], the IC50 at Human Nav1.8 (setting [2]) worked out at 0.67 µM; at Human Nav1.5 (setting [3]), 9.5 µM.
Turning to `Nc1nc(NC(=O)c2ccccc2)ccc1-c1ccccc1Cl` [Example 98], the values for the half-inhibitory concentration (IC50) (at Human Nav1.8 (setting [2]); in test [1]) were 2 µM and 10 µM, respectively.
`COc1cccc(-c2ccc(NC(=O)c3ccnn3C)nc2N)c1OC` [Example 125]: the IC50 against Human Nav1.8 was 25 µM; on Human Nav1.5 it was more than 32 µM.

Source of the values: US8134007B2, “Pyridine derivatives” (Pfizer Inc., priority 2007, dated 2012).
